# Test results reported in patent US4470840A, “1-Triacontanol plant growth stimulator formulations” (Biochemical Research Corporation, priority 1981, dated 1984).
# Columns and labels:
# [1] = system: Hybrid Sweet Corn Seedlings (cv. Silver Queen); test: Greenhouse trial: dry weight and water uptake of seedlings after foliar spraying; type: in vivo
# Description: In general, greenhouse trials were conducted as follows: eight to twelve seeds were sown per pot in Peat-Lite® Mix and received an average of 100 ml of water per day. After plants had the third true leaf (average), the various formulations were applied to the leaves as a fine mist at air temperatures listed in Table 1. Temperatures above 20° C., preferably 25°-30° C., are preferred.
# The 1-triacontanol formulation most generally used consisted of a concentrate containing 5 mg of 1-triacontanol dissolved in 1 liter of acetone, with 20 ml of the concentrate being further dissolved to 1 liter with water having a pH between 8 and 10, with over a pH of 11 also being effective. The pH was adjusted with aqueous NaOH and the concentrate added just prior to spraying.
# When other plant growth substances were added to the formulations, these were added either to the concentrate in the polar organic solvent or alternatively in the aqueous solution, depending on the solubility of the plant growth substance. All metal salts were added to the water used to spray the 1-triacontanol formulations. After spraying, preferably about four to nine days or more, plants were harvested with roots, and fresh weights were obtained. Plants were then dried in an oven, preferably at a temperature below 100° C., until constant weight was obtained, and dry weight values were obtained for each plot. Subtraction of the dry weights from the fresh weights gave the water uptake weights (water content) of each plot. The weights of the above mentioned seedlings were compared to the control weights to obtain the percent increases.
# It is particularly advantageous to arrange each of the potted plants in size range categories corresponding to the number of replications used. For example, if five replications are employed, plants are divided into five size categories, normally measured by the height of the plants. Treatments are then assigned randomly within each block (size category). This removes the variation due to plant size for statistical purposes, as is well practiced in the art. The resulting data is analyzed using any appropriate means, which may include the least significant difference method (L.S.D. method), Duncan's multiple range test, as used here (Biometrics, 11: 1 (1955)), or other means.
# [2] = system: Hybrid Sweet Corn Seedlings (cv. Silver Queen); test: Lengths of stems and total plant length of seedlings sprayed Day 7; type: in vivo; settings: T = 1-triacontanol 0.1 mg/liter; for Length "a" (stem to the first leaf): control 11.5 cm; for Length "b" (total plant length): control 25.0 cm
# [3] = 14-day old seedlings, plant growth substance 0.01 mM, with 1-triacontanol 0.1 mg/liter
# [4] = 14-day old seedlings, plant growth substance 0.01 mM, without 1-triacontanol
# [5] = plant growth substance 0.001 mM, CaCl2 50 mM, 1-triacontanol 0.5 mg per liter, pH 8
# [6] = plant growth substance 0.01 mM, CaCl2 50 mM, 1-triacontanol 0.5 mg per liter, pH 8
# [7] = plant growth substance 0.10 mM, CaCl2 50 mM, 1-triacontanol 0.5 mg per liter, pH 8
# [8] = plant growth substance 0.01 mM, CaCl2 10 mM, 1-triacontanol 0.5 mg per liter, pH 8
Structure (SMILES),"Increases, H2O uptake [1, 3]","Increases, dry wt. [1, 3]","Increases, H2O uptake [1, 4] [%]","Increases, dry wt. [1, 4]","Increases, H2O uptake [1, 5]","Increases, dry wt. [1, 5]","Increases, H2O uptake [1, 6]","Increases, dry wt. [1, 6]","Increases, H2O uptake [1, 7]","Increases, dry wt. [1, 7]","Increase in length ""a"" [2] [%]","Increase in length ""b"" [2]","Length ""a"" (stem to the first leaf) [2] [cm]","Length ""b"" (total plant length) [2] [cm]","Increases, H2O uptake [1, 8]","Increases, dry wt. [1, 8]"
"O=C(O)Cc1c[nH]c2ccccc12 [IAA, indole-3-acetic acid, reference compound]",-5%,+2%,-7,+4%,+18%,+37%,+25%,+56%,+14%,+36%,0,-2%,11.6,24.4,,
"c1coc(CNc2ncnc3nc[nH]c23)c1 [Kinetin, 6-furfurylamino purine, reference compound]",+14%,-21%,-3,-24%,,,-2%,+1%,,,0,+30%,11.5,32.5,+13%,+3%
